How the values were obtained:
[1] = Unbound cinacalcet fraction in plasma (30 kD ultrafiltration, RP-HPLC); assay type: in vitro ADME, rabbit; details: Recon conc. 1 mg/ml
Experimental: The unbound cinacalcet fractions in plasma were determined. The cinacalcet buffer solution and cinacalcet polymer micelles were mixed with rabbit plasma at 1:4 ratio, incubated at 37° C., and filtered through 30 kD ultrafiltration membrane. The filtrate and unfiltered plasma were mixed with acetonitrile at a ratio of 1:4, and the cinacalcet concentrations were determined by an RP-HPLC. Table 10 presents unbound (filtered) and total (unfiltered) cinacalcet concentrations, and calculated % unbound fractions (unbound concentration divided by total concentration).

[2] = oral, fasted subjects; cited from earlier work

C[C@@H](NCCCc1cccc(C(F)(F)F)c1)c1cccc2ccccc12 [cinacalcet]
Total conc. ([1]; 1:4 with rabbit plasma, 37° C.): 0.84 ± 0.01 mg/mL
Unbound concentration ([1]; 5 min): 92 ± 16 µg/mL
fraction unbound at 5 min, 0.2 mg/mL ([1]; rabbit, rabbit plasma, 5 min): 0.11
Absolute bioavailability [2]: 20-25%
